Results taken from patent US7056679B2, “Target specific screening and its use for identifying target binders” (Antyra, Inc., priority 2001, dated 2006).

Key:
[1] = target: T1, DGI-2 (Homo sapiens, UniProt Q15004); test: ELISA analysis of phage on DGI-2 polypeptide (specific binding); details: for DGI-2 (OD): binding to DGI-2 polypeptide (specific binding), phage ELISA units read at 405 nm; for DGI-2/LDH (OD): ratio of specific binding to non-specific binding
T1 construct: encompassed the entire DGI-2 open reading frame (ORF); His-tag of vector pIVEX2.3-MCS (inferred from the vector and from the reverse primer lacking a stop codon); made in house; host or cells: cell-free in vitro translation (Rapid Translation System RTS, Roche; E. coli lysate)
T1 sequence (Q15004 1-111): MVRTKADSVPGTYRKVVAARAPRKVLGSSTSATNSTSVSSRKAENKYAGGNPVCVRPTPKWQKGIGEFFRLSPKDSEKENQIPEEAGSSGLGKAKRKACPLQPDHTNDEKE
Protocol: To verify that the selected target binders bound to DGI-2, Elisa assays were performed with recombinant DGI-2. DGI-2 was subcloned and expressed using conventional methods as described below.
Protein yields were satisfactory, but most of protein was found in inclusion bodies. Next, DGI-2 was expressed using an in vitro translation system (Rapid Translation System RTS 5000, Roche Diagnostics GmbH, Mannheim Germany). For this system, the DGI-2 ORF was cloned into the pIVEX2.3-MCS vector (Roche Diagnostics) using restriction sites Nde I and Hind III, which were added to DGI-2 by PCR. […] The primers used for the PCR amplification were as follows: […]
(§1) For analysis of individual target binders, colonies were picked and phage prepared as described above using helper phage, M13KO7. Ninety-six-well microtiter plates were coated with 500 ng/well of specific target protein, 500 ng/well lactate dehydrogenase (LDH) irrelevant or non-specific target, 500 ng/well of positive control antibody raised against ETAG, and negative control of non-fat milk powder-PBS 2% at 4° C. overnight. Plates were then blocked with 350 microliters/well PBS containing 2% non-fat milk for 1 hr at room temperature. One hundred microliters per well of phage from isolated clones were added and plates were incubated at room temperature for 2 hr after centrifuging samples for 20 minutes at 3500 rpm at 4° C. The phage solution was then removed, and the wells were washed three times with PBS at room temperature. Antibody raised against M13 conjugated to horseradish peroxidase (Pharmacia) was diluted 1:3000 in PBS-Tween and added to each well (100 μl/well). Incubation was for 1 hr at room temperature, followed by washing with PBS-(0.5%) Tween 3 times as described. Color was developed by addition of ABTS solution (100 μl/well; Boehringer, Indianapolis, Ind.). Plates were analyzed at 405 nm. A clone was considered “positive” if the A405 of the well was ≧2-fold over background.

[2] = system: lactate dehydrogenase (LDH); test: ELISA analysis of phage on LDH (irrelevant, non-specific target); assay type: binding; details: for LDH (OD): peptide binding to LDH polypeptide (non-specific binding), phage ELISA units read at 405 nm; for LDH: DGI-9 binders, LDH control irrelevant protein, ratio over background
Protocol: as §1

[3] = system: E-tag antibody; test: ELISA analysis of phage on antibody raised against ETAG (positive control); details: peptide binding to E-tag antibody; phage ELISA units read at 405 nm
Protocol: as §1

| Substance | DGI-2 (OD) [1] | DGI-2/LDH (OD) [1] | LDH (OD) [2] | ETAG (OD) [3] | LDH [2] |
| --- | --- | --- | --- | --- | --- |
| GITGLFCLCLRSSQSI (DGI-2-20F-PP-D6; listed as Escherichia coli) [DGI-2-20F-P0P-D6] | 3.3 OD | 3.2 | 1.0 OD | 5.7 OD |  |
| GASRVVDVGWRFWGKLWQRS (DGI-2-20F-PP-G5; listed as Escherichia coli) | 2.4 OD | 2.0 | 1.2 OD | 27.7 OD |  |
| EGNWFCAVFRGFCVGDRGPE (DGI-2-20R-3-A1; listed as Escherichia coli) | 7.1 OD | 6.3 | 1.1 OD | 11.1 OD |  |
| LSRIWRGVIESAREVESRGI (DGI-2-20F-3-B1; listed as Escherichia coli) | 1.2 OD | 1.2 | 0.9 OD | 11.4 OD |  |
| VSGY#SLWWCGPGWGPRSGR (VSGYSLWWCGPGWGPRSGR; DGI-2-20F-PP-H11; listed as Escherichia coli) | 1.6 OD | 2.0 | 0.8 OD | 2.1 OD |  |
| GGSLPVKSGQLVTCCTSKGG (DGI-2-20F-PP-F5; listed as Escherichia coli) | 2.3 OD | 2.5 | 0.9 OD | 16.3 OD |  |
| LLLPVRWRDAQPRSLLMEWI (DGI-2-20F-PP-F8; listed as Escherichia coli) | 2.0 OD | 1.9 | 1.1 OD | 7.6 OD |  |
| MSSTAWTDRILQRGIGLGPV (DGI-2-20R-4-F1212; listed as Escherichia coli) | 4.0 OD | 3.3 | 1.2 OD | 9.8 OD |  |
| QVGGMTQVGATVLSVVTGRGSCDGEDAWYPPGVTVGLGLC (DGI-2-40F-4-F97; listed as Escherichia coli) | 6.7 OD | 6.4 | 1.0 OD | 14.0 OD |  |
| WAASCFWGHVALGCGRNGQG (DGI-2-20R-3-A11; listed as Escherichia coli) | 6.2 OD | 5.7 | 1.1 OD | 14.7 OD |  |
| GMWIRPNGHMELQGGYTARS (GMWIRPNGHMFLQGGYTARS; DGI-2-20R-4-G8; listed as Escherichia coli) | 1.5 OD | 1.4 | 1.1 OD | 14.5 OD |  |
| RGVNSDMPRLYICRADGQGQ (DGI-2-20F-PP-H6; listed as Escherichia coli) | 1.6 OD | 1.9 | 0.8 OD | 18.9 OD |  |
| ALRSLGSGGFGWQAGRASPQGMTHFPYFGWSGMPTARVRP (DGI-2-40F-3-D7; listed as Escherichia coli) | 2.6 OD | 2.6 | 1.0 OD | 10.3 OD |  |
| GGDLGEQGVQLCPDVVRGGSL (DGI-2-20F-PP-A7; listed as Escherichia coli) | 2.6 OD | 2.8 | 0.9 OD | 42.2 OD |  |
| MSTLQGPGHLFQMLRRASLG (DGI-2-20R-4-H12; listed as Escherichia coli) | 3.7 OD | 2.8 | 1.3 OD | 10.9 OD |  |
| LWLPCGLLVRPAQFYFYFSPLRHFLSSSVGSLSFPLSLLV (DGI-2-40F-3-B4; listed as Escherichia coli) | 1.0 OD | 1.1 | 0.8 OD | 1.5 OD |  |
| ERVSKCVGRGSGRSVGQFGG (DGI-2-20F-PP-F1; listed as Escherichia coli) | 3.0 OD | 3.4 | 0.9 OD | 11.1 OD |  |
| GLYRRAGDASVGFSRWGREDCQVYFSVECLLGSSWGGYS (GLYRRAGDASVGFSRWGRFDCQVYFSVECLLGSSWGGYS; DGI-2-40F-4-F12; listed as Escherichia coli) | 2.2 OD | 2.5 | 0.9 OD | 8.7 OD |  |
| PAMGHCMQVLGPVLEGRSRDQVGR (DGI-2-20R-4-G6; listed as Escherichia coli) | 1.6 OD | 1.4 | 1.1 OD | 11.5 OD |  |

| Substance | DGI-2 (OD) [1] | DGI-2/LDH (OD) [1] | LDH (OD) [2] | ETAG (OD) [3] | LDH [2] |
| --- | --- | --- | --- | --- | --- |
| TPDRCLIYSSIQCLLEYSARRGSAD (DGI-2-20C-3-C65; listed as Escherichia coli) | 1.8 OD | 1.8 | 1.0 OD | 7.4 OD |  |
| GHGAGDWAAELFVCPVAFLTGFAWR (DGI-2-20R-4-H2; listed as Escherichia coli) | 9.9 OD | 9.2 | 1.1 OD | 12.9 OD |  |
| RTLFINGGCCGKGSGGGRPL (DGI-2-20F-PP-G1; listed as Escherichia coli) | 1.4 OD | 1.4 | 1.0 OD | 21.8 OD |  |
| MFQDVACDLWHSVRCLRRDV (DGI-2-20R-3-B3; listed as Escherichia coli) | 4.9 OD | 4.8 | 1.0 OD | 16.1 OD |  |
| TLVTEGNIKGSVKAHKDIGVWQLWWDWLSVTDSETVGRVSH (TLVTEGNKGSVKAHKDIGVWQLWWDWLSVTDSETVGRVSH; DGI-2-40F-3-D10; listed as Escherichia coli) [DGL-2-40F-3-D10] | 1.5 OD | 1.7 | 0.9 OD | 10.3 OD |  |
| GWGCSVPGILCVGGHRQGGG (DGI-2-20R-3-B11; listed as Escherichia coli) | 5.9 OD | 5.7 | 1.0 OD | 16.9 OD |  |
| LFSATGCALMSGFCLGSDGS (DGI-2-20R-3-C1; listed as Escherichia coli) | 8.2 OD | 8.3 | 1.0 OD | 14.0 OD |  |
| FSSVLGLLDRRGVPVVVGED (DGI-2-20F-3-C3; listed as Escherichia coli) | 1.1 OD | 1.1 | 0.9 OD | 11.6 OD |  |
| S#ARSLMTGVVAVCIVWRGP (SARSLMTGVVAVCIVWRGP; DGI-2-20F-PP-E8; listed as Escherichia coli) | 2.5 OD | 2.6 | 1.0 OD | 36.3 OD |  |
| LGNASSLWFLRSVQESGVR (LGNASSLIPFLRSVQESGVR; DGI-2-20F-3-C5; listed as Escherichia coli) | 1.0 OD | 1.0 | 0.9 OD | 17.7 OD |  |
| QGSAHVVRPPGVYDVPWKVGMFFHPQNWPNSWGRAYFRSG (DGI-2-40F-3-D12; listed as Escherichia coli) | 2.3 OD | 2.5 | 1.0 OD | 7.3 OD |  |
| TSCQVMFLAGQHLLSRVPRL (DGI-2-20R-3-B6; listed as Escherichia coli) [DGL-2-20R-3-B6] | 2.8 OD | 2.7 | 1.0 OD | 11.7 OD |  |
| GLYQRGLAPRCRGERFGVRN (DGI-2-20F-PP-C2; listed as Escherichia coli) | 2.7 OD | 2.5 | 1.1 OD | 6.0 OD |  |
| GGGRESWGGGWFMGWGSGAG (DGI-2-20R-3-A6; listed as Escherichia coli) | 5.8 OD | 5.9 | 1.0 OD | 17.7 OD |  |
| FLLQDFIMDAGSFVKPIGVG [DGI9-20M-4-A414] |  |  |  |  | 1.1 |
| WDWSRFGAQLRGAILGRATG [DGI9-20M-4-A627] |  |  |  |  | 0.9 |
| SRLALSSQHGLSLVAGRRRG [DGI9-20M-4-A12] |  |  |  |  | 0.9 |
| MAGFRGSGLSGYSEARLPRV [DGI9-20M-4-E3] |  |  |  |  | 1.0 |
